Read-outs that look alike come from different tables or passages of the source.
Legend:
[1] = system: Metastatic NSCLC patients; conditions: for Response to gefitinib therapy: metastatic NSCLC
[2] = system: chemo-refractory advanced stage NSCLC; conditions: phase II clinical trials; cited from earlier work
[3] = EIF3H FISH negative patients (mean <2.75)
[4] = EIF3H FISH positive patients (mean ≧2.75)
[5] = MYC FISH negative patients (mean <2.79)
[6] = MYC FISH positive patients (mean ≧2.79)

COc1cc2ncnc(Nc3ccc(F)c(Cl)c3)c2cc1OCCCN1CCOCC1 [gefitinib]
response rate (RR) [1, 3]: 0%
time to progression (TTP) [1, 3]: 2.7 months
response rate (RR) [1, 4]: 32%
survival (OS) [1, 4]: 17.8 months
time to progression (TTP) [1, 4]: 4.4 months
Response to gefitinib therapy ([1]; EIF3H amplified patients (ratio EIF3H/CEP8>2)): 30%
Response to gefitinib therapy ([1]; EIF3H non amplified patients): 14%
response rate (RR) [1, 5]: 0%
time to progression (TTP) [1, 5]: 2.6 months
response rate (RR) [1, 6]: 31%
time to progression (TTP) [1, 6]: 4.4 months
Response to gefitinib therapy ([1]; MYC amplified patients): 25%
Response to gefitinib therapy ([1]; MYC non-amplified patients): 14%
patients responding to treatment [2]: 11-20%

Source: patent US20110294686A1, “EGFR INHIBITOR THERAPY RESPONSIVENESS” (priority 2008, published 2011)
